Assays:
[1] = system: glycopeptide-susceptible Enterococcus faecium (GSEF); assay: Teicoplanin MIC by gradient diffusion method (Etest) on archived blood isolates; format: cell-based; conditions: for MICEtest: median (IQR), Etest
Method: For this study, teicoplanin MIC determinations were performed on archived isolates using a commercial automated broth microdilution method with the MicroScan WalkAway-96 Plus system (MICWalkAway) (Beckman Coulter) and gradient diffusion method (MICEtest) (Etest, bioMérieux) following the manufacturer’s instructions. Due to a change in the MIC measurement range during the study period, all isolates were remeasured using the MicroScan WalkAway-96 Plus system for consistency. The MICWalkAway measurement range was 2, 4, 8, and 16 mg/L. The MICEtest results were reviewed and confirmed independently by three clinical microbiologists who were blinded to the clinical outcomes of the patients from whom the isolates were obtained. In cases where disagreement occurred among all three operators, the MIC was retested and determined by the representative operator, taking the initial results into consideration.

[2] = system: glycopeptide-susceptible Enterococcus faecium (GSEF); assay: Teicoplanin MIC by automated broth microdilution (MicroScan WalkAway-96 Plus); format: cell-based; conditions: all isolates; measurement range 2, 4, 8, 16 mg/L
Method: Blood culture specimens were processed using the BACTEC FX system (Becton Dickinson Microbiology Systems, Sparks, MD, USA). Species identification of bacterial isolates recovered from blood cultures was performed using the MALDI Biotyper 1.0 (Bruker Daltonics, Bremen, Germany). Antimicrobial susceptibilities to ampicillin and teicoplanin were tested using the MicroScan WalkAway system (Beckman Coulter Japan, Tokyo, Japan) and interpreted according to the Clinical and Laboratory Standards Institute (M100-S26) breakpoints.[21] Polymicrobial bacteraemia was defined as cases where one or more microorganisms, in addition to E. faecium, were isolated from the same blood culture and were not classified as contaminants according to the CDC criteria.[16]
For this study, teicoplanin MIC determinations were performed on archived isolates using a commercial automated broth microdilution method with the MicroScan WalkAway-96 Plus system (MICWalkAway) (Beckman Coulter) and gradient diffusion method (MICEtest) (Etest, bioMérieux) following the manufacturer’s instructions. […] In cases where disagreement occurred among all three operators, the MIC was retested and determined by the representative operator, taking the initial results into consideration.

[3] = Teicoplanin trough concentration and Bayesian estimation of AUC24/fAUC24 in patients; format: in vivo, human
Method: The primary PK/PD parameter for this study was the ratio of the estimated 24-h free-drug area under the curve to the MIC (fAUC24/MICEtest). The estimation of fAUC24 was based on total Cmin measured during the maintenance phase of therapy (at least 3 days after treatment initiation). Our institutional dosing protocol recommends a loading dose of 8–10 mg/kg administered three times approximately every 12 h within the first 48 h for patients with normal renal function, followed by a maintenance dose of 6 mg/kg once daily from Day 3. This loading regimen is intended to rapidly achieve therapeutic concentrations, allowing Cmin values measured during the maintenance phase to serve as a reliable surrogate for drug exposure. Teicoplanin doses were routinely proposed by a pharmacist using therapeutic drug monitoring (TDM) with a target Cmin for teicoplanin set at 15–30 mg/L in line with guideline recommendations,[22] though actual dosing was determined at the discretion of the attending physician.
The estimation of fAUC24 involved a multi-step process. First, the total drug AUC over a 24-h interval during the maintenance phase (AUC24) was calculated for each patient. This was based on individual total clearance (CLtotal) estimated from the observed Cmin through Bayesian analysis. This analysis employed a previously developed population PK (PopPK) model for Japanese patients constructed by Nakayama et al.[23] This PopPK model was based on data from 120 Japanese adult inpatients with MRSA infections and incorporates creatinine clearance and body weight as covariates, making it applicable to our study population. […] Based on the estimated CLtotal for each patient, the AUC24 was calculated as AUC24 (mg·h/L) = daily maintenance dose (mg)/CLtotal (L/h).[13],[24] Second, to account for the impact of hypoalbuminaemia, a patient-specific unbound fraction (fu) was estimated based on a validated model developed specifically for teicoplanin in a Japanese patient population by Yano et al.[25] The model predicts the fu using the patient’s ALB concentration with the following formula: […]
where ALB is expressed in g/dL.
Finally, the free AUC24 (fAUC24) was estimated by multiplying the total AUC24 by fu. The resulting fAUC24/MICEtest ratio was used for all subsequent PK/PD analyses.
PK parameters for each patient were determined using the TDM software, BMs-Pod (ver 8.06, https://bmspod.web.fc2.com/).[26],[27]

GSEF bacteraemia [4] = assay: Clinical outcomes of teicoplanin-treated GSEF bacteraemia (retrospective cohort); format: in vivo, human; conditions: for Treatment failure: 30-day all-cause mortality or microbiological failure
Method: We conducted a retrospective, single-centre, observational cohort study at The University of Tokyo Hospital between 1 April 2009 and 30 May 2023. The University of Tokyo’s ethics review board approved the study protocol (approval no. 2023138NI) and waived the requirement for written informed consent. The study was conducted in accordance with the ethical standards of the 1964 Declaration of Helsinki and its subsequent amendments. Patients with at least one GSEF-positive blood culture who received teicoplanin during the study period were deemed eligible. The exclusion criteria were as follows: lack of storage of microbiological samples, lack of teicoplanin trough concentration (Cmin), age under 18 years, renal replacement therapy or initiation of teicoplanin treatment more than 72 h after infection. GSEF bacteraemia was defined as one or more blood cultures positive for E. faecium resistant to ampicillin, and susceptible to teicoplanin and vancomycin, accompanied by signs or symptoms of infection consistent with suspected infection sites, as established in previous studies.[9],[15],[16] Polymicrobial infections were included in the analysis. For patients with a history of multiple treatments for GSEF bacteraemia, only the first treatment was considered.
The primary outcome, treatment failure, was defined as a composite of (i) 30-day all-cause mortality or (ii) microbiological failure, defined as persistent bacteraemia (a positive follow-up blood culture obtained >72 h after initiation of appropriate therapy) in patients with at least one follow-up blood culture).[28],[29] In patients without follow-up blood cultures, microbiological failure was not assessed, and treatment failure was determined solely based on 30-day all-cause mortality. […] Secondary outcomes included 90-day all-cause mortality (death within 90 days of the first positive GSEF blood culture), in-hospital mortality (death occurring during hospitalization), relapse (recurrence of GSEF bacteraemia after negative blood cultures following GSEF treatment) and readmission within 90 days of the first positive GSEF blood culture. Relapse was defined as recurrence of GSEF bacteraemia after documented microbiological clearance, confirmed by at least one negative follow-up blood culture. All clinical outcomes and PK parameter estimation (including AUC calculation) were conducted by an infectious disease pharmacist with access to treatment details and patient clinical courses. MIC measurements were performed independently by separate investigators and were integrated only after clinical outcome evaluation was completed. Safety outcomes included (i) incidence of AKI, diagnosed according to the KDIGO criteria (defined as 1.5× increase in sCr from baseline within 7 days or ≥0.3 mg/dL increase within 48 h of baseline following teicoplanin initiation)[30]; (ii) incidence of liver injury, defined as AST ≥ 90 U/L or ALT ≥ 126 U/L (≥3 times the upper limit during teicoplanin treatment)[31]; and (iii) other adverse events associated with teicoplanin use for GSEF bacteraemia.[15]
Continuous variables, expressed as medians with IQRs, were compared between the treatment success and treatment failure groups using the Mann–Whitney U-test. Categorical variables were compared between the two groups using the χ² test or Fisher’s exact test, as appropriate. To identify predictors of treatment failure, several steps were taken for the logistic regression analysis. First, classification and regression tree (CART) analysis was used to identify the optimal cut-off value for the fAUC24/MICEtest associated with treatment failure, according to the previous vancomycin PK/PD study.[32] This created a dichotomous variable for the PK/PD parameter. Next, a multivariable logistic regression model was constructed to assess the independent effect of the fAUC24/MICEtest on treatment failure. […]

[5] = cited from earlier work
Text: The PK/PD parameter most commonly associated with the clinical efficacy of teicoplanin against MRSA is the ratio of the AUC to the MIC, referred to as AUC/MIC.[10],[11] The target AUC/MIC ratio for teicoplanin against MRSA is approximately 600–900, and achieving this target is known to improve therapeutic outcomes.[12],[13] Furthermore, teicoplanin is a highly protein-bound drug (approximately 90%), and it is the unbound (free) fraction that exerts antimicrobial activity. In critically ill patients, conditions such as hypoalbuminaemia can alter protein binding, potentially affecting the free d ...

[6] = in vivo; cited from earlier work
Method: The estimation of fAUC24 involved a multi-step process. First, the total drug AUC over a 24-h interval during the maintenance phase (AUC24) was calculated for each patient. This was based on individual total clearance (CLtotal) estimated from the observed Cmin through Bayesian analysis. This analysis employed a previously developed population PK (PopPK) model for Japanese patients constructed by Nakayama et al.[23] This PopPK model was based on data from 120 Japanese adult inpatients with MRSA infections and incorporates creatinine clearance and body weight as covariates, making it applicable ...

GSEF bacteraemia [7] = conditions: cited from earlier work

For teicoplanin, the “proportion of isolates with MIC ≤ 0.5 mg/L” value ([1]; isolates of the cohort) was 84.2%, the MICEtest ([1]; treatment failure group (n = 18)) was 0.50 (0.35–0.50) mg/L and the MICEtest ([1]; treatment success group (n = 58)) was 0.25 (0.13–0.50) mg/L. The MICWalkAway [2] was at most 2 mg/L, the Cmin ([3]; human, in vivo) was 18.3 (15.0–23.1) mg/L and the “inter-individual variability (CV%) for clearance” value ([3]; human, in vivo) was 39.2%. The “inter-individual variability (CV%) for distribution rate parameter K12” value ([3]; human, in vivo) was 0.1%, the “inter-individual variability (CV%) for distribution rate parameter α” value ([3]; human, in vivo) was 4.7% and the “inter-individual variability (CV%) for steady-state volume of distribution” value ([3]; human, in vivo) was 43.8%. For the same substance, the “median Cmin in both groups” value ([3]; human, in vivo) was “approximately 18 mg/L”, the Cmin ([3]; total trough concentration, maintenance phase, treatment failure group (n = 18), median (IQR)) was 18.4 (9.70–23.1) mg/L and the “overall 30-day mortality rate” value (GSEF bacteraemia [4]; 6/76) was 7.9%. The “treatment failure, overall” value (GSEF bacteraemia [4]; 18 of 76 patients) was 23.7%, the 30-day mortality (GSEF bacteraemia [4]; fAUC24/MICEtest < 462 (n = 49)) was 6 (12.2) n (%) and the 90-day mortality (GSEF bacteraemia [4]; fAUC24/MICEtest < 462 (n = 49)) was 17 (34.7) n (%). The In-hospital mortality (GSEF bacteraemia [4]; fAUC24/MICEtest < 462 (n = 49)) was 12 (24.5) n (%), the “Readmission within 90 days after bacteraemia” value (GSEF bacteraemia [4]; fAUC24/MICEtest < 462 (n = 49)) was 22 (44.9) n (%) and the Relapse (GSEF bacteraemia [4]; fAUC24/MICEtest < 462 (n = 49)) was 7 (14.3) n (%). The Treatment failure (GSEF bacteraemia [4]; fAUC24/MICEtest < 462 (n = 49)) was 17 (34.7) n (%), the 30-day mortality (GSEF bacteraemia [4]; fAUC24/MICEtest ≥ 462 (n = 27)) was 0 (0.0) n (%) and the 90-day mortality (GSEF bacteraemia [4]; fAUC24/MICEtest ≥ 462 (n = 27)) was 3 (11.1) n (%). The In-hospital mortality (GSEF bacteraemia [4]; fAUC24/MICEtest ≥ 462 (n = 27)) was 2 (7.4) n (%), the “Readmission within 90 days after bacteraemia” value (GSEF bacteraemia [4]; fAUC24/MICEtest ≥ 462 (n = 27)) was 8 (29.6) n (%) and the Relapse (GSEF bacteraemia [4]; fAUC24/MICEtest ≥ 462 (n = 27)) was 3 (11.1) n (%). The Treatment failure (GSEF bacteraemia [4]; fAUC24/MICEtest ≥ 462 (n = 27)) was 1 (3.7) n (%), the “Odds ratio (95% CI) of treatment failure for fAUC24/MICEtest ≥ 462, multivariable” value (GSEF bacteraemia [4]; logistic regression adjusted for CCI, immunosuppressed state, Pitt bacteraemia score) was 0.099 (0.005–0.562) and the “Odds ratio (95% CI) of treatment failure for fAUC24/MICEtest ≥ 462, univariable” value (GSEF bacteraemia [4]; logistic regression, univariable) was 0.072 (0.004–0.389). The “incidence of treatment failure” value (GSEF bacteraemia [4]; patients with fAUC24/MICEtest < 462) was 34.7%, the “incidence of treatment failure” value (GSEF bacteraemia [4]; patients with fAUC24/MICEtest ≥ 462) was 3.7% and the protein bound [5] was “approximately 90%”. The “inter-individual variability (CV%) for clearance (CL)” value [6] was 22.1%, the “inter-individual variability (CV%) for volume of distribution (V)” value [6] was 26.7% and the residual variability [6] was 15.6%. For the same substance, the effectiveness versus vancomycin (GSEF bacteraemia [7]; GSEF bacteraemia treatment) was “non-inferior to vancomycin”, the “incidence of acute kidney injury (AKI) versus vancomycin” value (GSEF bacteraemia [7]; in vivo) was “significantly lower incidence of acute kidney injury (AKI)” and the treatment success ratio (GSEF bacteraemia [7]; patients with GSEF bacteraemia) was 64.9%.

Reference: article PMC12368495, “Pharmacokinetic/pharmacodynamic parameters of teicoplanin for predicting clinical outcome of glycopeptide-susceptible Enterococcus faecium bacteraemia” (JAC-Antimicrobial Resistance, 2025)
